For series [1], the system named is cell viability (endogenous cellular GAPDH). The series can be described thus: Cell viability, AlphaScreen SureFire GAPDH assay. To be noted: cytotoxicity.
Series [2] deals with HIV/HA (H5) pseudotype virus. Kind of series: organism not typed. The format is cell-based, influenza A virus H5N1. To be noted: for inhibition at 25 µM: A549, read-out: % inhibition @ 25 μM influenza.
The subject of the next series is Pseudotype ebola virus. The series can be described thus: microbe, parasite or virus in culture. The format is cell-based. To be noted: Zaire ebolavirus, read-out: % inhibition @ 25 μM EBOV.
The test system of series [3] is HIV/VSV-G pseudotype virus. Kind of series: organism not typed. To be noted: read-out: % inhibition @ 25 μM VSV. The format is cell-based, vesicular stomatitis virus.

pIC50: −log10 of the molar value. Where only a bound is given, the exact number is not on record here.

In series [1], `O=C(CN(c1ccc(Cl)cc1Cl)S(=O)(=O)c1ccccc1)Nc1ccccc1F` [Compound 6] registered a CC50 of over 25 µM. Besides, the pIC50 in series [2] was 5.28.

In series [1], `COc1cccc(N(CC(=O)Nc2cc(Cl)cc(Cl)c2)S(=O)(=O)c2ccccc2)c1` [Compound 7] returned a CC50 of 31.5 µM. This compound gave a pIC50 in series [2] of 4.73.

Compound `COc1ccc(OC)c(N(CC(=O)Nc2ccc(Cl)cc2)S(=O)(=O)c2ccc(C)cc2)c1` [Compound 8] registered a CC50 in series [1] of over 100 µM. Further, in series [2], the pIC50 was under 4.00.

For the compound `O=C(CN(c1ccc(Cl)c(Cl)c1)S(=O)(=O)c1ccccc1)Nc1ccccc1` [Compound 9], it took 42 µM to reach half-maximal cytotoxicity in series [1] (CC50). The pIC50 in series [2] was 4.70.

The compound `O=C(CN(c1ccc(Cl)cc1Cl)S(=O)(=O)c1ccccc1)Nc1ccc(F)cc1` [Compound 10] registered a CC50 in series [1] of 50.5 µM. The pIC50 in series [2] is 4.60.

With `COc1ccc(N(CC(=O)Nc2ccccc2C)S(=O)(=O)c2ccccc2)cc1` [Compound 11], the CC50 in series [1] was over 100 µM. This compound had a pIC50 in series [2] of under 4.00.

With `COc1ccc(N(CC(=O)Nc2ccc(F)cc2)S(=O)(=O)c2ccccc2)cc1` [Compound 12], the half-maximal cytotoxic concentration (CC50) in series [1] was over 100 µM. Besides, the pIC50 in series [2] was under 4.00.

In the case of `COc1ccc(N(CC(=O)Nc2c(OC)cccc2OC)S(=O)(=O)c2ccccc2)cc1` [Compound 13], the CC50 in series [1] is over 100 µM. The same compound gave a pIC50 in series [2] of under 4.00.

Compound `COc1ccccc1N(CC(=O)Nc1cccc(C)c1C)S(=O)(=O)c1ccccc1` [Compound 14] showed a CC50 in series [1] of over 100 µM. Further, the pIC50 in series [2] was under 4.00.

`COC(=O)c1ccccc1NC(=O)CN(c1ccc(C)cc1)S(=O)(=O)c1ccc(OC)cc1` [Compound 11978_G07]: the inhibition at 25 µM in the series with Pseudotype ebola virus stood at 89%; in series [3], 29%; in series [2] it was 22%.

For the compound `CCOc1ccc(N(C(C)C(=O)Nc2cccc(C(F)(F)F)c2)S(C)(=O)=O)cc1` (stereo not drawn) [Compound 11982_F11], the inhibition at 25 µM in the series with Pseudotype ebola virus was determined as 25%; in series [3] it was 73%; in series [2], 87%.

In the case of `COc1cccc(N(CC(=O)Nc2ccc(CSc3ccccc3)cc2)S(C)(=O)=O)c1` [Compound 11997_F05], the inhibition at 25 µM in the series on Pseudotype ebola virus came out at 41%; in series [3] it was 51%; in series [2], 100%.

`Cc1cccc(NC(=O)CN(c2cccc(Cl)c2Cl)S(C)(=O)=O)c1` [Compound 11998_D06]: the figures for the inhibition at 25 µM (in the series with Pseudotype ebola virus; in series [3]; in series [2]) were 0%, 0% and 88%, respectively.

With `CS(=O)(=O)N(CC(=O)Nc1ccccc1F)c1cc(C(F)(F)F)ccc1Cl` [Compound 12020_E02], the figures for the inhibition at 25 µM (in the series with Pseudotype ebola virus; in series [3]; in series [2]) were 43%, 68% and 86%, respectively.

As for `COc1ccc(Cl)cc1NC(=O)CN(c1cccc(Cl)c1Cl)S(C)(=O)=O` [Compound 12021_B02], the inhibition at 25 µM in the series on Pseudotype ebola virus came out at 0%; in series [3], 70%; in series [2], 87%.

As for `CCc1ccc(N(CC(=O)Nc2ccc(Oc3ccccc3)cc2)S(C)(=O)=O)cc1` [Compound 12066_B08], the inhibition at 25 µM with Pseudotype ebola virus came out at 31%; in series [3], 24%; in series [2] it was 98%.

For the compound `Cc1c(Cl)cccc1NC(=O)CN(c1ccc(I)cc1)S(C)(=O)=O` [Compound 12076_B09], the inhibition at 25 µM turned out to be 48% in the series with Pseudotype ebola virus, 21% in series [3] and 86% in series [2].

Regarding `COc1ccccc1NC(=O)CN(c1ccc(Cl)cc1C)S(C)(=O)=O` [Compound 12078_B05], the values for the inhibition at 25 µM (with Pseudotype ebola virus; in series [3]; in series [2]) were 42%, 36% and 96%, respectively.

Regarding `COc1ccc(S(=O)(=O)N(CC(=O)Nc2ccc(F)c(Cl)c2)c2ccccc2)cc1` [Compound 12078_D04], the values for the inhibition at 25 µM (in the series with Pseudotype ebola virus; in series [3]; in series [2]) were 87%, 60% and 40%, respectively.

With `COc1ccc(S(=O)(=O)N(CC(=O)Nc2ccc(F)cc2F)c2ccc(Cl)cc2)cc1` [Compound 12079_A05], the figures for the inhibition at 25 µM (in the series with Pseudotype ebola virus; in series [3]; in series [2]) were 86%, 0% and 19%, respectively.

On to `COc1ccc(Cl)cc1N(CC(=O)Nc1ccc(F)cc1F)S(=O)(=O)c1ccc(C)cc1` [Compound 12096_A08], for which the inhibition at 25 µM in the series on Pseudotype ebola virus worked out at 38%; in series [3], 42%; in series [2], 88%.

In the case of `CCOc1ccccc1NC(=O)CN(c1cc(Cl)ccc1Cl)S(C)(=O)=O` [Compound 12110_D02], the inhibition at 25 µM in the series on Pseudotype ebola virus is 0%; in series [3], 2%; in series [2], 90%.

For the compound `CCc1ccccc1N(CC(=O)Nc1cccc(F)c1)S(C)(=O)=O` [Compound 12112_H02], the inhibition at 25 µM with Pseudotype ebola virus amounted to 0%; in series [3] it was 0%; in series [2], 86%.

Turning to `COc1ccc(S(=O)(=O)N(CC(=O)Nc2cccc3ccccc23)c2ccc(C)cc2)cc1` [Compound 12305_B04], the inhibition at 25 µM with Pseudotype ebola virus was 85%; in series [3], 0%; in series [2], 47%.

Regarding `COc1ccc(S(=O)(=O)N(CC(=O)Nc2cccc3ccccc23)c2ccc(Cl)cc2)cc1` [Compound 12308_B02], the inhibition at 25 µM in the series with Pseudotype ebola virus worked out at 96%; in series [3], 23%; in series [2], 46%.

As to `Cc1ccc(N(CC(=O)Nc2ccccc2C(C)C)S(C)(=O)=O)cc1` [Compound 12402_E03], the figures for the inhibition at 25 µM (with Pseudotype ebola virus; in series [3]; in series [2]) were 85%, 22% and 47%, respectively.

As to `Cc1ccc(S(=O)(=O)N(CC(=O)Nc2ccccc2C(F)(F)F)c2ccc(F)cc2)cc1` [Compound 12440_F06], the inhibition at 25 µM in the series on Pseudotype ebola virus was found to be 93%; in series [3], 45%; in series [2] it was 46%.

On to `COc1ccc(N(CC(=O)Nc2ccccc2F)S(=O)(=O)c2ccccc2)cc1Cl` [Compound 12441_B08], for which the inhibition at 25 µM in the series with Pseudotype ebola virus worked out at 98%; in series [3], 7%; in series [2], 33%.

For the compound `COc1ccc(S(=O)(=O)N(CC(=O)Nc2ccccc2SC)c2ccc(Cl)cc2)cc1` [Compound 12794_B09], the results for the inhibition at 25 µM (in the series on Pseudotype ebola virus; in series [3]; in series [2]) were 100%, 63% and 0%, respectively.

As for `COc1ccc(N(CC(=O)Nc2ccccc2SC)S(=O)(=O)c2ccc(F)cc2)cc1` [Compound 12794_H03], the inhibition at 25 µM in the series with Pseudotype ebola virus stood at 100%; in series [3] it was 77%; in series [2], 47%.

Turning to `COc1ccc(N(CC(=O)Nc2ccccc2-c2ccccc2)S(=O)(=O)c2ccc(F)cc2)cc1` [Compound 12838_B07], the inhibition at 25 µM amounted to 99% in the series with Pseudotype ebola virus, 77% in series [3] and 46% in series [2].

`COC(=O)c1ccccc1NC(=O)CN(c1ccc(C)cc1)S(=O)(=O)c1ccccc1` [Compound 30636_C03]: the figures for the inhibition at 25 µM (in the series with Pseudotype ebola virus; in series [3]; in series [2]) were 87%, 42% and 26%, respectively.

As to `O=C(CN(c1ccccc1F)S(=O)(=O)c1ccccc1)Nc1cccc(C(F)(F)F)c1` [Compound 30656_D10], the values for the inhibition at 25 µM (with Pseudotype ebola virus; in series [3]; in series [2]) were 31%, 59% and 87%, respectively.

For orientation: CC50 means the concentration at which the toxic effect on the cells reaches its halfway point. Lower therefore signals greater toxicity to the cells. For orientation: pIC50 means the negative decadic logarithm of the IC50, by convention in mol/L. Higher therefore signals a low IC50. The term inhibition denotes the relative decrease from the control value, in per cent.
